Measured values as given in patent publication US20110200549A1, “Organic Compounds Suitable For Modulating Fragrance Compositions” (priority 2008, published 2011).

Key:
CYP2A13 = molecular target: T1, CYP2A13 (Homo sapiens, UniProt Q16696); assay: CYP2A13 inhibition, coumarin 7-hydroxylation (Umbelliferone fluorescence) in microsomes; type: biochemical; settings: recombinant CYP2A13 + P450 reductase microsomes, coumarin 0.006 mM, 60 min at 37° C.; read-out: CYP2A13 inhibitor activity IC50
T1 construct: made in house; host or cells: Sf9 insect cells, recombinant baculovirus
T1 sequence (Q16696 1-494): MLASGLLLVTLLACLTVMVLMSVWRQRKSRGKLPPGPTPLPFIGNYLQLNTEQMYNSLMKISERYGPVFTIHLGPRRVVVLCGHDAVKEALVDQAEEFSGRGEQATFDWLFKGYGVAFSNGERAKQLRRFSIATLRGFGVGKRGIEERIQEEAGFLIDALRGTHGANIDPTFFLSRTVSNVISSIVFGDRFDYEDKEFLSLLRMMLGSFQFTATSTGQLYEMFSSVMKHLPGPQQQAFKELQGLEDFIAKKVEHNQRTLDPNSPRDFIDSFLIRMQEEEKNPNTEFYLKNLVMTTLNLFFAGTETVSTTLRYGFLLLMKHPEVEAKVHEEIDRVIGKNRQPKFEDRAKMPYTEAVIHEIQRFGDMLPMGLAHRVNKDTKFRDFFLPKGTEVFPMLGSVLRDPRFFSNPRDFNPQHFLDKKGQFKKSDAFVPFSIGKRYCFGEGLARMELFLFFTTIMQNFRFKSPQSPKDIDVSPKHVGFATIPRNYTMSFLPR
Experimental: Compounds that inhibit the activity of CYP2A13 are identified by using a standard reaction established for the enzyme. A known substrate is coumarin, and the product of the enzymatic reaction is 7-hydroxy-coumarin (Umbelliferone) which is strongly fluorescent. When a compound is added to the standard reaction and the formation of Umbelliferone is decreased, the compound is identified as an inhibitor, which can also be a competitive substrate of the enzyme. The compound is used at various concentrations and the concentration-dependent decrease in Umbelliferone formation allows to determine the concentration where the activity of the enzyme is reduced to the 50% level (IC50 value).
A test compound (details see Table 1) was incubated with CYP2A13 in the presence of a cytochrome P450 reductase. CYP2A13 and P450 reductase were employed in form of microsomes. CYP2A13 was produced in Sf9 cells using a recombinant baculovirus, under conditions known to the person skilled in the art, for example, as described in WO 2006/007751. P450 reductase is commercially available (BD Biosciences Gentest, USA). Preferably, the two enzymes are coexpressed in the same insect cells and microsomes prepared which contain both enzymes. The art of coexpression of two enzymes is known, and the coexpression CYP2A13 and P450 reductase is described in WO 2006/007751. […] An MOI of 4 for recombinant CYP2A13 baculovirus combined with an MOI of 3.5 for recombinant P450 reductase baculovirus routinely produced microsomes with considerable activity.
Microsomes were used which contained 7 pmoles CYP2A13. Tris buffer (1 M, pH 7.6) and water were added to give a buffer concentration of 0.1M. The test compound was prepared as a 50 mM stock solution in acetonitrile. The concentration of the standard substrate coumarin was 0.006 mM. Several samples of the test compound were prepared at various concentrations to give different final concentrations in the reaction: 0, 0.005, 0.01, 0.02, 0.05, 0.1 and 0.2 mM. The mixture was incubated for 10 min at 37° C. prior to the initiation of the enzymatic reaction by the addition of 0.005 ml of a solution of 50 mM NADPH in water. The final total volume was 0.2 ml, which is suitable for microtiter plate measurements. The samples were incubated for 60 min at 37° C. After 60 min, the enzymatic reaction was stopped by the addition of 0.02 ml cold 50% trichloroacetic acid (TCA) and incubated at 4° C. for 15 min. 0.005 ml of a solution of 50 mM NADPH in water was added to the control reaction which corresponds to the reaction without test compound and without NADPH, and as a consequence, no Umbelliferone was formed. Denatured proteins and other insoluble parts were separated by centrifugation (10 min, 560×g, room-temperature).
The samples were analysed spectrofluorometrically which allows to detect the formation of Umbelliferone as the enzymatic product of coumarin at an excitation wavelength of 340 nm and an emission wavelength of 480 nm.

CYP2B6 = molecular target: T2, CYP2B6 (Homo sapiens, UniProt P20813); assay: CYP2B6 inhibition, 7-ethoxy-4-trifluoromethyl-coumarin fluorescence assay in microsomes; type: biochemical; settings: CYP2B6 + P450 reductase microsomes, 7-ethoxy-4-trifluoromethyl-coumarin 6 μM, 40 min at 37° C.; read-out: CYP2B6 inhibitor activity IC50
T2 construct: made in house; host or cells: Sf9 insect cells, recombinant baculoviruses, coexpressed with P450 reductase
T2 sequence (P20813 1-491): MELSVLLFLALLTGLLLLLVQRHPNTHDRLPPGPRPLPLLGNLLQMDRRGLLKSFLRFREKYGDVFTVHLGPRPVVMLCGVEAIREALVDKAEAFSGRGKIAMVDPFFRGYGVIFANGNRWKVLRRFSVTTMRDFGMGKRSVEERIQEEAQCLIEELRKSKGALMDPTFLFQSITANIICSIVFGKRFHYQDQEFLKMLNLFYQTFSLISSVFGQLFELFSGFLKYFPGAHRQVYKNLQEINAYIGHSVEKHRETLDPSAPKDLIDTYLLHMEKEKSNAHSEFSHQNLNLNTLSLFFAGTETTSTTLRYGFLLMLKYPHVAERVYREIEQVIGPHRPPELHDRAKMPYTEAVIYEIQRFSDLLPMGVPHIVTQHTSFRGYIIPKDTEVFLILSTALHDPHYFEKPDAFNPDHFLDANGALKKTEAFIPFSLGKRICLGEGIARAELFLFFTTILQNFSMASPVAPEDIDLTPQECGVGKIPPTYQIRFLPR
Experimental: Test compounds that inhibit the activity of CYP2B6 are identified by using the same principle as described in Example 42, first paragraph.
A test compound (details see Table 2) was incubated with CYP2B6 in the presence of a cytochrome P450 reductase. CYP2B6 and P450 reductase are produced using recombinant baculoviruses and co-expressing the two proteins in Sf9 insect cells as described in Example 42. Alternatively, microsomes containing CYP2B6 and the reductase are commercially available (BD Biosciences Gentest, USA). Microsomes were used which contained 1.5 pmoles CYP2B6. Potassium phosphate buffer final concentration was 100 mM, (1M stock, pH 7.4). The test compound was prepared as a 50 mM stock solution in acetonitrile. The concentration of the standard substrate 7-ethoxy-4-trifluoromethyl-coumarin was 6 μM. Several samples of the test compound were prepared at various concentrations to give different final concentrations in the reaction: 0, 0.005, 0.01, 0.02, 0.05, 0.1 and 0.2 mM. […] The final total volume was 0.2 ml, which is suitable for microtiter plate measurements. The samples were incubated for 40 min at 37° C. After 40 min, the enzymatic reaction was stopped by the addition of […] 0.5M Tris-base/acetonitrile (18:72). 0.005 ml of a solution of 50 mM NADPH in water was added to the control reaction which corresponds to the reaction with test compound and enzyme but without NADPH, and as a consequence, no 4-trifluoromethyl-umbelliferone was formed. Denatured proteins and other insoluble parts were separated by centrifugation (5 min, 1800 rpm, at 10° C.).
The samples were analysed spectrofluorometrically which allows to detect the formation of 4-trifluoromethyl-umbelliferone as the enzymatic product at an excitation wavelength of 410 nm and an emission wavelength of 510 nm.

[1] = Sensory panel study with olfactometer (Virtual Aroma Synthesizer): modulation of a fragrance accord by the inhibitor; set-up: species or system human; settings: 10-ingredient fragrance accord with vs without inhibitor, random order, panelists
Experimental: For each panelist, the inhibitor was tested by itself and confirmed that it was rated as being odorless at the given concentration.
Sensory studies are performed using an olfactometer, such as the Virtual Aroma Synthesizer (VAS) which is described in Chimia (2001) 55:401-405. The instrument allows to combine saturated headspace of different samples from different containers at various dilutions in order to determine the effect on the odor of the mixture produced in headspace. For the particular example, in one container the fragrance accord (1 gram) was adsorbed on beads (4 grams) and in another container the inhibitor N-(cyclopropylmethyl)-N-pentylacetamide was adsorbed on beads (4 grams).
Panelists were selected having different levels of experience and expertise in smelling, rating, describing and evaluating odorants, accords and perfumes. Panelists smelled the accord with or without the inhibitor at random order, not knowing which one was presented. Before and after the session, it was confirmed that the inhibitor alone was odorless.

IC50 (CYP2A13)	IC50 (CYP2B6)	SMILES	Effect on the odor of the fragrance accord attributed to the presence of the inhibitor [1]
0.3 µM	72 µM	CCCCCN(Cc1ccccc1)C(C)=O [Ex. 1, N-benzyl-N-pentylacetamide]	
0.5 µM	46 µM	CCCCCN(C(C)=O)c1ccccc1 [Ex. 2, N-pentyl-N-phenylacetamide]	
2 µM	93 µM	CCCCCN(CCc1ccccc1)C(C)=O [Ex. 3, N-pentyl-N-phenethylacetamide]	
15 µM		CCCCCN(Cc1cccnc1)C(C)=O [Ex. 4, N-pentyl-N-(pyridin-3-ylmethyl)acetamide]	
8 µM		CCCCN(Cc1ccccc1)C(C)=O [Ex. 6, N-benzyl-N-butylacetamide]	
24 µM		CCCCCN(CCc1ccccn1)C(C)=O [Ex. 16, N-pentyl-N-(2-(pyridin-2-yl)ethyl)acetamide]	
25 µM		CCCCCN(CCc1cccnc1)C(C)=O [Ex. 18, N-pentyl-N-(2-(pyridin-3-yl)ethyl)acetamide]	
41 µM		CCCCCN(CCc1cccnc1)C(=O)OC [Ex. 19, methyl pentyl(2-(pyridin-3-yl)ethyl)carbamate]	
13 µM	19 µM	CCCCCN(CCc1ccncc1)C(C)=O [Ex. 20, N-pentyl-N-(2-(pyridin-4-yl)ethyl)acetamide]	
2 µM		CCCCCN(CCc1ccncc1)C(=O)OC [Ex. 21, methyl pentyl(2-(pyridin-4-yl)ethyl)carbamate]	
10 µM		CCCCCN(Cc1ccccn1)C(C)=O [Ex. 22, N-pentyl-N-(pyridin-2-ylmethyl)acetamide]	
34 µM	2.5 µM	CCCCCN(CCc1c[nH]cn1)C(C)=O [Ex. 27, N-(2-(1H-imidazol-4-yl)ethyl)-N-pentylacetamide]	
1.6 µM	20 µM	CCCCCN(Cc1ccccc1)C(=O)OC [Ex. 29, methyl benzyl(pentyl)carbamate]	

Further lines, the compound ahead of its results:

SMILES	IC50 (CYP2A13)	IC50 (CYP2B6)	Effect on the odor of the fragrance accord attributed to the presence of the inhibitor [1]
CCCCCN(Cc1cccnc1)C(=O)OC [Ex. 5, methyl pentyl(pyridin-3-ylmethyl)carbamate]	22 µM		
CCCCCN(Cc1ccncc1)C(C)=O [Ex. 8, N-pentyl-N-(pyridin-4-ylmethyl)acetamide]	11 µM		
CCCCCN(Cc1ccncc1)C(=O)OC [Ex. 9, methyl pentyl(pyridin-4-ylmethyl)carbamate]	17 µM		
CCCCCN(CC1CC1)C(C)=O [Ex. 10, N-(cyclopropylmethyl)-N-pentylacetamide]	0.5 µM	87 µM	intensifying or boosting the fruitiness of the accord
CCCCCN(CC1CC1)C(=O)OC [Ex. 11, methyl cyclopropylmethyl(pentyl)carbamate]	3 µM	28 µM	
CCCCCN(CCc1ccccn1)C(=O)OC [Ex. 17, methyl pentyl(2-(pyridin-2-yl)ethyl)carbamate]	44 µM		
CCCCCN(Cc1ccccn1)C(=O)OC [Ex. 23, methyl pentyl(pyridin-2-ylmethyl)carbamate]	20 µM		
CCCCCN(CCc1c[nH]cn1)C(=O)OC [Ex. 28, methyl 2-(1H-imidazol-4-yl)ethyl(pentyl)carbamate]	47 µM		
CCCCCN(C(C)=O)C(=O)C1CC1 [Ex. 33, N-acetyl-N-pentylcyclopropanecarboxamide]	0.7 µM	17 µM	
CCCCCN(C(C)=O)C(=O)OC(C)(C)C [Ex. 34, tert-butyl acetyl(pentyl)carbamate]	1.5 µM	11 µM	
CC(=O)N(CCc1ccccc1)Cc1ccccc1 [Ex. 35, N-benzyl-N-phenethylacetamide]	52 µM		
CCCCCN(C=O)CC1CC1 [Ex. 36, N-(cyclopropylmethyl)-N-pentylformamide]	1.3 µM	49 µM	
CCCCC/C(=C\c1ccccc1)C(=O)NC [Ex. 37, (E)-2-benzylidene-N-methylheptanamide]	0.5 µM		
CCCCC/C(=C\C1CC1)C(=O)NC [Ex. 38, (E)-2-(cyclopropylmethylene)-N-methylheptanamide]	0.8 µM		
CCCCC/C(=C\c1ccccc1)C(=O)N(C)C [Ex. 39, (E)-2-benzylidene-N,N-dimethylheptanamide]	3 µM		
CCCCC/C(=C\C1CC1)C(=O)N(C)C [Ex. 40, (E)-2-(cyclopropylmethylene)-N,N-dimethylheptanamide]	9 µM		
CCCCC/C(=C\C1CC1)C(N)=O [Ex. 41, (E)-2-(cyclopropylmethylene)heptanamide]	1.1 µM		
